From BindingDB's records for doi:10.1124/jpet.104.079301 (University of Li&Eagrove;Ge, 2005)

Biological target: Thromboxane A2 receptor (Homo sapiens, UniProt P21731)
Sequence (P21731 as listed by the source): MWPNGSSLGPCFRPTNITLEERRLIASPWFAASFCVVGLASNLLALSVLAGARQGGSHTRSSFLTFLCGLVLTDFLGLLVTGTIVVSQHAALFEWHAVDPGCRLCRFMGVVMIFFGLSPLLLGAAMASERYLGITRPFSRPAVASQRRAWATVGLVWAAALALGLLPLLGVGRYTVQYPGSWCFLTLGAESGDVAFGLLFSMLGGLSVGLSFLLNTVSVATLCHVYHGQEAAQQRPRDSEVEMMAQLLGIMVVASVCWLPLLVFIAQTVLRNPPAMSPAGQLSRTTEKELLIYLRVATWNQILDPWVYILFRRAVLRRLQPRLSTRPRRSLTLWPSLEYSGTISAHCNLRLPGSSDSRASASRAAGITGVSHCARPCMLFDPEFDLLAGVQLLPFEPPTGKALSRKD

Work on `CCCCCNC(=O)NS(=O)(=O)c1cc([N+](=O)[O-])ccc1Nc1ccc(C)cc1` yielded a Ki of 3.1 nM.

In the case of `Cc1ccc(Nc2ccc([N+](=O)[O-])cc2S(=O)(=O)NC(=O)NC(C)(C)C)cc1` [BM 573], the Ki is reported as 0.8 nM.
